This is an account of results in patent US12274704B2, “9,11-secosteroids and the use of 9,11-secosteroids in preparing pharmaceutical compositions for inhibiting inflammation” (Chang Gung University of Science and Technology, priority 2020, dated 2025).

The IC50 is the concentration that inhibits the measured activity by half. A higher IC50 goes with weaker potency. In general, inhibition refers to the change of the read-out against control, counted positive when it falls.

Assay [1] has as its system fMLF/CB-induced human neutrophils. The experiment in a line: Superoxide anion generation in fMLF/CB-induced human neutrophils. The note with it: for IC50: mean ± S.E.M. (n = 3 or 4); for inhibition at 10 µM / Superoxide Anion Inhibition (%): at 10 μM concentration, mean ± S.E.M. It counts as cell-based. How it is done: (§1) Blood samples were collected from healthy adult donors (20-32 years) via venipuncture in accordance with the standard protocol approved by the local institutional review board. Human neutrophils were isolated from peripheral blood through dextran sedimentation, centrifugation in a Ficoll-Hypaque gradient, and hypotonic lysis of red blood cells.
(§2) In accordance with the above-mentioned protocol, assays were performed to measure superoxide anion generation based on the superoxide dismutase-inhibitable reduction of ferricytochrome c; methoxy-succinyl-alanyl-alanyl-prolyl-valine-p-nitroanilide (MeO-Suc-Ala-Ala-Pro-Val-p-nitroanilide) was used as the enzyme substrate for the detection of elastase release.

Assay [2] shares this test system. The experiment in a line: Elastase release in fMLF/CB-induced human neutrophils. It counts as cell-based. As to conditions: for IC50: mean ± S.E.M. (n = 3 or 4); for inhibition at 10 µM / Elastase Release Inhibition (%): at 10 μM concentration, mean ± S.E.M. On the procedure: as §1, §2
In a further assay the target is T1, FPR1 receptor (Homo sapiens, UniProt P21462).
T1 construct: endogenous in cells; host or cells: human neutrophils
T1 sequence (P21462 1-350): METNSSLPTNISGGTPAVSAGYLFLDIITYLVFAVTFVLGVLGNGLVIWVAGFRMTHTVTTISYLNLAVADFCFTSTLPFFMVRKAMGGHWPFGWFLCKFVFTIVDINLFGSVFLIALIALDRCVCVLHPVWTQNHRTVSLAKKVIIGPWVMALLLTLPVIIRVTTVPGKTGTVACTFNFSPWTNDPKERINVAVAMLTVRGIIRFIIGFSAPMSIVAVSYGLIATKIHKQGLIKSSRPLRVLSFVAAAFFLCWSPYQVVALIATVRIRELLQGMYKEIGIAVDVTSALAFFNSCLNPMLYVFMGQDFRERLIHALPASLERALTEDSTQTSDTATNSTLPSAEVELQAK
The experiment in a line: FPR1 receptor binding assay (fNLFNYK, flow cytometry) in human neutrophils. As to conditions: 10 μM test substance, fNLFNYK 2 nM. On the procedure: Receptor binding assays of the present invention were performed via FACScan™ flow Cytometer analysis of N-formyl-Nle-Leu-Phe-Nle-Tyr-Lys-fluorescein (fNLFNYK; a fluorescent analog of N-formylmethionyl-leucyl-phenylalanine (fMLF)) binding to receptor of human neutrophils; The neutrophils were preincubated with test compounds at 4° C. for 5 min and then labelled with fNLFNYK for 30 min, then the cells were immediately analyzed via flow cytometry.
The receptor-binding assay is based on the binding between N-formyl-Nle-Leu-Phe-Nle-Tyr-Lys-fluorescein (fNLFNYK) and the […] receptor of human neutrophil.
(In flow cytometry, cells or beads pass a laser one at a time.)

Take `C=C(CC[C@@H](C)C1CCC([C@H]2CC=C3C[C@@H](O)CC[C@]3(C)C2=O)[C@]1(C)CCO)C(C)C` (stereo partly drawn) [Compound 3, 8αH-3β,11-dihydroxy-24-methylene-9,11-secocholest-5-en-9-one]: the concentration for half-maximal inhibition (IC50) in assay [1] (Homo sapiens, Neutrophil) is 1.63 to 8.07 µM; in assay [1], 1.97 ± 0.12 µM; in assay [2] (Homo sapiens, Neutrophil), 1.63 to 8.07 µM; in assay [2], 3.12 ± 0.07 µM. The inhibition at 10 µM was 90.5 ± 2.44% in assay [1] (Neutrophil) and 112 ± 5.01% in assay [2] (Neutrophil).

Consider `C=C(CC[C@@H](C)C1CCC([C@@H]2CC=C3C[C@@H](O)CC[C@]3(C)C2=O)[C@]1(C)CCO)C(C)C` (stereo partly drawn) [Compound 4, 8βH-3β,11-dihydroxy-24-methylene-9,11-secocholest-5-en-9-one], for which the IC50 in assay [1] (Homo sapiens, Neutrophil) was 1.63 to 8.07 µM; in assay [1], 2.96 ± 0.91 µM; in assay [2] (Homo sapiens, Neutrophil), 1.63 to 8.07 µM; in assay [2], 1.63 ± 0.15 µM. Moreover, the inhibition at 10 µM in assay [1] (Neutrophil) came to 91.1 ± 4.51%; in assay [2] (Neutrophil), 93.7 ± 1.23%.

Take `CC(C)[C@@H](C)CC[C@@H](C)[C@H]1CC[C@@H]([C@@H]2CC=C3C[C@@H](O)CC[C@]3(C)C2=O)[C@]1(C)CCO` [Compound 6, (24S)-3β,11-dihydroxy-24-methyl-9,11-secocholest-5-en-9-one]: in assay [1], the “Superoxide Anion Inhibition (%)” value was 60.51 ± 4.06 % and the concentration for half-maximal inhibition (IC50) came out at 4.09 ± 0.5 µM. Besides, in assay [2], the “Elastase Release Inhibition (%)” value is listed as 25.38 ± 6.68 % and the IC50 was more than 10 µM.

For `CC(C)[C@@H](C)[C@@]1(C)C[C@@H]1[C@@H](C)[C@H]1CC[C@@H]([C@@H]2CC=C3C[C@@H](O)CC[C@]3(C)C2=O)[C@]1(C)CCO` [Compound 7, 3β,11-dihydroxy-9,11-secogorgost-5-en-9-one], in assay [1], the “Superoxide Anion Inhibition (%)” value is listed as 10.29 ± 5.42 % and the IC50 was more than 10 µM. In assay [2], the “Elastase Release Inhibition (%)” value was found to be 18.87 ± 3.86 % and the half-inhibitory concentration (IC50) was more than 10 µM.

Take leptosterol A [Compound 5]: in assay [1], the “Superoxide Anion Inhibition (%)” value came out at 57.93 ± 2.30 % and the IC50 came to 8.07 ± 0.53 µM. For the same compound, in assay [2], the “Elastase Release Inhibition (%)” value amounted to 86.32 ± 2.91 % and the IC50 was 4.73 ± 0.57 µM.

Regarding sinleptosterol A [Compound 1], in assay [1], the “Superoxide Anion Inhibition (%)” value is reported as 64.76 ± 3.42 % and the midpoint of inhibition, the IC50, lay at 7.07 ± 0.52 µM. In addition, on FPR1 receptor, the “binding to FPR1 receptor (inhibition of fNLFNYK binding)” value was “low affinity”. In assay [2], the “Elastase Release Inhibition (%)” value is reported as 65.04 ± 2.76 % and the IC50 is 7.57 ± 0.4 µM.

Consider sinleptosterol B [Compound 2], for which, in assay [1], the “Superoxide Anion Inhibition (%)” value is listed as 76.30 ± 5.09 % and 4.68 ± 0.57 µM corresponded to half-maximal inhibition (IC50). Further, in assay [2], the “Elastase Release Inhibition (%)” value was 105.09 ± 5.25 % and the IC50 is 4.29 ± 0.25 µM.
